Test results: US10626144B2, “Peptide derivatives and uses thereof” (Nosopharm, priority 2014, dated 2020)
Numbered stars: 1 amine (or outer) side, 2 acyl side, 3 side chain; on linkers, the order of the positions; unused ones are H or OH. Square brackets hold non-standard residues; d marks the D form. Peptide text beside a SMILES is read from it. * marks the point of attachment. X3 = NC[C@H](OC(=O)C(F)(F)F)[C@H](N[*:1])C(=O)[*:2]; Phe(3,4-(OMe)2) = COc1ccc(C[C@H](N)C(=O)O)cc1OC; Phe(3-CONH2) = NC(=O)c1cccc(C[C@H](N)C(=O)O)c1; Abu(4,4,4-F3) = N[C@@H](CC(F)(F)F)C(=O)O; Phe(4-CN) = N#Cc1ccc(C[C@H](N)C(=O)O)cc1; Phe(3-F) = N[C@@H](Cc1cccc(F)c1)C(=O)O; Phe(3-Me) = Cc1cccc(C[C@H](N)C(=O)O)c1; Dab(3S-OH) = NC[C@H](O)[C@H](N)C(=O)O; Phe(2-F) = N[C@@H](Cc1ccccc1F)C(=O)O; ΔZArg = N=C(N)NCC/C=C(\N)C(=O)O; Gly(cPr) = N[C@H](C(=O)O)C1CC1; dOrn = NCCC[C@@H](N)C(=O)O; Orn = NCCC[C@H](N)C(=O)O; Nva = CCC[C@H](N)C(=O)O; NH(CH2)4NH2 = NCCCCN*

How the values were obtained:
Assay in all cases: MIC, broth microdilution (CLSI), reference strain
Conditions in all cases: CAMHB
[1] = tested on: Staphylococcus aureus ATCC 13709
[2] = tested on: Acinetobacter baumannii ATCC 19606
[3] = tested on: Escherichia coli ATCC 25922
[4] = tested on: Pseudomonas aeruginosa ATCC 27853

| Structure (SMILES) | Sa: MIC Staphylococcus aureus ATCC 13709 [1] | Ab: MIC Acinetobacter baumannii ATCC 19606 [2] | Ec: MIC Escherichia coli ATCC 25922 [3] | Pa: MIC Pseudomonas aeruginosa ATCC 27853 [4] |
| --- | --- | --- | --- | --- |
| CC(C)C[C@H](NC(=O)[C@@H](NC(=O)[C@@H](N)CCCCN)[C@@H](O)CN)C(=O)NCC(=O)N[C@H](CCCN)C(=O)N1CCC[C@H]1C(=O)N[C@@H](Cc1cnc[nH]1)C(=O)N[C@@H](CCCCN)C(=O)N/C(=C\CCNC(=N)N)C(=O)N[C@@H](CCCCN)C(=O)NCCCCN [29.1] (H-K[Dab(3S-OH)]LG[dOrn]PHK[ΔZArg]K-{NH(CH2)4NH2}) | + (≤32 μg/mL) | − (>32 μg/mL) | − (>32 μg/mL) | − (>32 μg/mL) |
| N=C(N)NCC/C=C(\NC(=O)[C@H](CCCCN)NC(=O)[C@H](Cc1cnc[nH]1)NC(=O)[C@@H]1CCCN1C(=O)[C@@H](CCCN)NC(=O)CNC(=O)[C@@H](NC(=O)[C@@H](NC(=O)[C@@H](N)CCCCN)[C@H](CN)OC(=O)C(F)(F)F)[C@@H](O)CN)C(=O)N[C@@H](CCCCN)C(=O)NCCCCN [32.1] (H-K[X3][Dab(3S-OH)]G[dOrn]PHK[ΔZArg]K-{NH(CH2)4NH2}) | ++ (≤8 μg/mL) | − (>32 μg/mL) | + (≤32 μg/mL) | − (>32 μg/mL) |
| CCC[C@H](NC(=O)[C@@H](NC(=O)[C@@H](N)CCCCN)[C@@H](O)CN)C(=O)NCC(=O)N[C@H](CCCN)C(=O)N1CCC[C@H]1C(=O)N[C@@H](Cc1cnc[nH]1)C(=O)N[C@@H](CCCCN)C(=O)N/C(=C\CCNC(=N)N)C(=O)N[C@@H](CCCCN)C(=O)NCCCCN [210.1] (H-K[Dab(3S-OH)][Nva]G[dOrn]PHK[ΔZArg]K-{NH(CH2)4NH2}) | ++ (≤8 μg/mL) | − (>32 μg/mL) | − (>32 μg/mL) | − (>32 μg/mL) |
| N=C(N)NCC/C=C(\NC(=O)[C@H](CCCCN)NC(=O)[C@H](Cc1cnc[nH]1)NC(=O)[C@@H]1CCCN1C(=O)[C@@H](CCCN)NC(=O)CNC(=O)[C@H](CCCN)NC(=O)[C@@H](NC(=O)[C@@H](N)CCCCN)[C@@H](O)CN)C(=O)N[C@@H](CCCCN)C(=O)NCCCCN [211.1] (H-K[Dab(3S-OH)][Orn]G[dOrn]PHK[ΔZArg]K-{NH(CH2)4NH2}) | ++ (≤8 μg/mL) | + (≤32 μg/mL) | ++ (≤8 μg/mL) | ++ (≤8 μg/mL) |
| N=C(N)NCC/C=C(\NC(=O)[C@H](CCCCN)NC(=O)[C@H](Cc1cnc[nH]1)NC(=O)[C@@H]1CCCN1C(=O)[C@@H](CCCN)NC(=O)CNC(=O)[C@H](CCCN)NC(=O)[C@@H](NC(=O)[C@@H](N)CCCCN)[C@@H](O)CN)C(=O)O [211.2] (H-K[Dab(3S-OH)][Orn]G[dOrn]PHK[ΔZArg]-OH) | ++ (≤8 μg/mL) | − (>32 μg/mL) | + (≤32 μg/mL) | − (>32 μg/mL) |
| N=C(N)NCC/C=C(\NC(=O)[C@H](CCCCN)NC(=O)[C@H](Cc1cccc(C(N)=O)c1)NC(=O)[C@@H]1CCCN1C(=O)[C@@H](CCCN)NC(=O)CNC(=O)[C@H](CCCN)NC(=O)[C@@H](NC(=O)[C@@H](N)CCCCN)[C@@H](O)CN)C(=O)O [211.3] (H-K[Dab(3S-OH)][Orn]G[dOrn]P[Phe(3-CONH2)]K[ΔZArg]-OH) | ++ (≤8 μg/mL) | − (>32 μg/mL) | ++ (≤8 μg/mL) | − (>32 μg/mL) |
| N=C(N)NCC/C=C(\NC(=O)[C@H](CCCCN)NC(=O)[C@H](Cc1cccc(F)c1)NC(=O)[C@@H]1CCCN1C(=O)[C@@H](CCCN)NC(=O)CNC(=O)[C@H](CCCN)NC(=O)[C@@H](NC(=O)[C@@H](N)CCCCN)[C@@H](O)CN)C(=O)O [211.4] (H-K[Dab(3S-OH)][Orn]G[dOrn]P[Phe(3-F)]K[ΔZArg]-OH) | ++ (≤8 μg/mL) | − (>32 μg/mL) | ++ (≤8 μg/mL) | − (>32 μg/mL) |
| Cc1cccc(C[C@H](NC(=O)[C@@H]2CCCN2C(=O)[C@@H](CCCN)NC(=O)CNC(=O)[C@H](CCCN)NC(=O)[C@@H](NC(=O)[C@@H](N)CCCCN)[C@@H](O)CN)C(=O)N[C@@H](CCCCN)C(=O)N/C(=C\CCNC(=N)N)C(=O)O)c1 [211.5] (H-K[Dab(3S-OH)][Orn]G[dOrn]P[Phe(3-Me)]K[ΔZArg]-OH) | ++ (≤8 μg/mL) | − (>32 μg/mL) | ++ (≤8 μg/mL) | − (>32 μg/mL) |
| N#Cc1ccc(C[C@H](NC(=O)[C@@H]2CCCN2C(=O)[C@@H](CCCN)NC(=O)CNC(=O)[C@H](CCCN)NC(=O)[C@@H](NC(=O)[C@@H](N)CCCCN)[C@@H](O)CN)C(=O)N[C@@H](CCCCN)C(=O)N/C(=C\CCNC(=N)N)C(=O)O)cc1 [211.6] (H-K[Dab(3S-OH)][Orn]G[dOrn]P[Phe(4-CN)]K[ΔZArg]-OH) | ++ (≤8 μg/mL) | − (>32 μg/mL) | ++ (≤8 μg/mL) | − (>32 μg/mL) |
| COc1ccc(C[C@H](NC(=O)[C@@H]2CCCN2C(=O)[C@@H](CCCN)NC(=O)CNC(=O)[C@H](CCCN)NC(=O)[C@@H](NC(=O)[C@@H](N)CCCCN)[C@@H](O)CN)C(=O)N[C@@H](CCCCN)C(=O)N/C(=C\CCNC(=N)N)C(=O)O)cc1 [211.7] (H-K[Dab(3S-OH)][Orn]G[dOrn]PY(Me)K[ΔZArg]-OH) | ++ (≤8 μg/mL) | − (>32 μg/mL) | ++ (≤8 μg/mL) | − (>32 μg/mL) |
| N=C(N)NCC/C=C(\NC(=O)[C@H](CCCCN)NC(=O)[C@H](CC(F)(F)F)NC(=O)[C@@H]1CCCN1C(=O)[C@@H](CCCN)NC(=O)CNC(=O)[C@H](CCCN)NC(=O)[C@@H](NC(=O)[C@@H](N)CCCCN)[C@@H](O)CN)C(=O)O [211.8] (H-K[Dab(3S-OH)][Orn]G[dOrn]P[Abu(4,4,4-F3)]K[ΔZArg]-OH) | ++ (≤8 μg/mL) | − (>32 μg/mL) | ++ (≤8 μg/mL) | − (>32 μg/mL) |
| N=C(N)NCC/C=C(\NC(=O)[C@H](CCCCN)NC(=O)[C@H](Cc1ccccc1F)NC(=O)[C@@H]1CCCN1C(=O)[C@@H](CCCN)NC(=O)CNC(=O)[C@H](CCCN)NC(=O)[C@@H](NC(=O)[C@@H](N)CCCCN)[C@@H](O)CN)C(=O)O [211.9] (H-K[Dab(3S-OH)][Orn]G[dOrn]P[Phe(2-F)]K[ΔZArg]-OH) | ++ (≤8 μg/mL) | − (>32 μg/mL) | ++ (≤8 μg/mL) | − (>32 μg/mL) |
| COc1ccc(C[C@H](NC(=O)[C@@H]2CCCN2C(=O)[C@@H](CCCN)NC(=O)CNC(=O)[C@H](CCCN)NC(=O)[C@@H](NC(=O)[C@@H](N)CCCCN)[C@@H](O)CN)C(=O)N[C@@H](CCCCN)C(=O)N/C(=C\CCNC(=N)N)C(=O)O)cc1OC [211.10] (H-K[Dab(3S-OH)][Orn]G[dOrn]P[Phe(3,4-(OMe)2)]K[ΔZArg]-OH) | ++ (≤8 μg/mL) | − (>32 μg/mL) | ++ (≤8 μg/mL) | − (>32 μg/mL) |
| N=C(N)NCC/C=C(\NC(=O)[C@H](CCCCN)NC(=O)[C@H](Cc1c[nH]c2ccccc12)NC(=O)[C@@H]1CCCN1C(=O)[C@@H](CCCN)NC(=O)CNC(=O)[C@H](CCCN)NC(=O)[C@@H](NC(=O)[C@@H](N)CCCCN)[C@@H](O)CN)C(=O)O [211.11] (H-K[Dab(3S-OH)][Orn]G[dOrn]PWK[ΔZArg]-OH) | ++ (≤8 μg/mL) | − (>32 μg/mL) | ++ (≤8 μg/mL) | − (>32 μg/mL) |
| N=C(N)NCC/C=C(\NC(=O)[C@H](CCCCN)NC(=O)[C@H](Cc1cnc[nH]1)NC(=O)[C@@H]1CCCN1C(=O)[C@@H](CCCN)NC(=O)CNC(=O)[C@@H](NC(=O)[C@@H](NC(=O)[C@@H](N)CCCCN)[C@@H](O)CN)C1CC1)C(N)=O [213.1] (H-K[Dab(3S-OH)][Gly(cPr)]G[dOrn]PHK[ΔZArg]-NH2) | ++ (≤8 μg/mL) | − (>32 μg/mL) | + (≤32 μg/mL) | − (>32 μg/mL) |
| N=C(N)NCC/C=C(\NC(=O)[C@H](CCCCN)NC(=O)[C@H](Cc1cnc[nH]1)NC(=O)[C@@H]1CCCN1C(=O)[C@@H](CCCN)NC(=O)CNC(=O)[C@@H](NC(=O)[C@@H](NC(=O)[C@@H](N)CCCCN)[C@@H](O)CN)C1CC1)C(=O)O [213.2] (H-K[Dab(3S-OH)][Gly(cPr)]G[dOrn]PHK[ΔZArg]-OH) | + (≤32 μg/mL) | − (>32 μg/mL) | + (≤32 μg/mL) | − (>32 μg/mL) |
| N=C(N)NCC/C=C(\NC(=O)[C@H](CCCCN)NC(=O)[C@H](Cc1cnc[nH]1)NC(=O)[C@@H]1CCCN1C(=O)[C@@H](CCCN)NC(=O)CNC(=O)[C@H](Cc1cnc[nH]1)NC(=O)[C@@H](NC(=O)[C@@H](N)CCCCN)[C@@H](O)CN)C(N)=O [214.1] (H-K[Dab(3S-OH)]HG[dOrn]PHK[ΔZArg]-NH2) | ++ (≤8 μg/mL) | − (>32 μg/mL) | + (≤32 μg/mL) | − (>32 μg/mL) |
| N=C(N)NCC/C=C(\NC(=O)[C@H](CCCCN)NC(=O)[C@H](Cc1cnc[nH]1)NC(=O)[C@@H]1CCCN1C(=O)[C@@H](CCCN)NC(=O)CNC(=O)[C@H](Cc1cnc[nH]1)NC(=O)[C@@H](NC(=O)[C@@H](N)CCCCN)[C@@H](O)CN)C(=O)O [214.2] (H-K[Dab(3S-OH)]HG[dOrn]PHK[ΔZArg]-OH) | + (≤32 μg/mL) | − (>32 μg/mL) | − (>32 μg/mL) | − (>32 μg/mL) |
